Reference: patent US7156906B2, “Impregnating agent” (Yara International ASA, priority 2001, dated 2007)

How the values were obtained:
[1] = tested on: Coniophora puteana; experiment: growth of the fungi Coniophora puteana at varying concentrations; format: cell-based; details: FIG. 1
Source text: (§1) Coniophora puteana and […] stillatus, the former is a standard organism in such tests prescribed for use in the European Standard Test EN 113.

[2] = tested on: Coniophora puteana; experiment: wood block test, % reduction of dry matter after exposure to fungi (EN 113); details: 3 months
Method: Coniophora puteana and […] stillatus, the former is a standard organism in such tests prescribed for use in the European Standard Test EN 113. The tests were carried out in the following way: Small blocks of wood of the prescribed size 5 cm×2.5 cm×1.5 cm were numbered and then dried in an oven at 105° C. for 24 hours, cooled and weighed. That represented the dry weight at start. […] The blocks were impregnated with said solution and control blocks with sterile distilled water under vacuum for 10 minutes and then left in the impregnating solution for 1 hour, whereupon they were completely soaked with the impregnating solution. Subsequent to this impregnation the blocks were placed on filter paper for 30 minutes for drainage. The test blocks were then washed three times with distilled water for 2 minutes and then left in distilled water for 24 hours and finally washed three times with distilled water and then placed on filter paper for drainage. Four blocks were used for each concentration of impregnating solution with 2 blocks in each test flask, so-called Kolle flasks. The duration of the tests was 3 months. The blocks were then removed from the flasks and scraped clean of fungi, whereupon they were dried at 105° C. for 24 hours and weighed and percent reduction in dry weight was calculated.

[3] = tested on: Dacrymyces stillatus; experiment: growth of the fungi Dacrymyces stillatus at varying concentrations; format: cell-based; details: FIG. 2
Source text: as §1

O=CO.O=C[O-].[K+] [K-diformate, potassium diformate]
concentration at which it acts as an effective fungicide (growth) [1]: at least 0.13 weight %
concentration necessary to obtain required effect on reduction of dry matter ([2]; with subsequent washing of test blocks, FIG. 4): 4.8%
concentration giving complete effect on reduction of dry matter ([2]; without subsequent washing of test blocks, FIGS. 3 and 7): 1.3–2%
concentration necessary to achieve complete retardation in growth [3]: at least 0.18 weight %
